# Laboratory results from US11691949B2, “Quinoline sulfonamide compounds and their use as antibacterial agents” (OTAGO INNOVATION LIMITED, priority 2017, dated 2023).
# Read-outs that look alike come from different tables or passages of the source.
# What was measured:
# Format in all cases: cell-based
# [1] = tested on: S. uberis ATCC 19436; assay: MIC by broth microdilution, S. uberis; details: Streptococcus uberis, read-out: S. uberis ATCC 19436 MIC
# Experimental: (§1) Antibacterial susceptibility testing was performed in triplicate (biological) by measuring minimum inhibitory concentrations (MICs) by broth microdilution in 96-well flat bottom microtiter plates (ThermoFisher Scientific, New Zealand). S. uberis ATCC 19436, S. aureus ATCC 6538, or E. coli ATCC 10596 cells grown overnight were diluted to an OD600 of approximately 0.025, so that the final concentration of cells in the MIC assay was approximately 5×10^5 cfu/mL in media as follows: S. uberis; Todd Hewitt Broth (THB), S. aureus; Tryptic Soy Broth (TSB) and Cation Adjusted Muller Hinton Broth (CAMHB), and E. coli; Lysogeny Borth (LB) and CAMHB, before being dispensed into microtiter wells. As required additional sterile Zinc Sulphate (Heptahydrate) was supplemented into the media, so the final concentration was 50 μM. Test compounds were added to starting wells and two-fold serial dilutions were undertaken to generate a range of inhibitor concentrations at a final volume of 200 μl. Media and test compound-free (untreated) controls were included in each microtiter plate in triplicate. After 24 h incubation at 37° C. and 200 rpm, the OD600 of wells were read using a Varioskan Flash plate reader (ThermoFisher Scientific, New Zealand). The MIC was reported as the lowest concentration of the test compound for which no growth occurred, as determined by OD600 readings. The minimum bactericidal concentration (MBC) was determined using the Miles-Misra drop-plate method to measure the viability of cells in response to test compound challenge.
# [2] = tested on: E. coli ATCC 10596; assay: MIC by broth microdilution, E. coli; details: Escherichia coli, read-out: E. coli ATCC 10536 MIC
# Experimental: as §1
# [3] = tested on: S. aureus ATCC 6538; assay: MIC by broth microdilution, S. aureus; details: Staphylococcus aureus, read-out: S. aureus ATCC 6538 MIC
# Experimental: as §1
# [4] = ATCC 10536 / ATCC 10596, No Zinc
# [5] = ATCC 10536 / ATCC 10596, Zinc (50 μM)
SMILES,"MIC ([1]; ATCC19436, No Zinc) [µg/mL]","MIC ([1]; ATCC19436, Zinc (50 μM)) [µg/mL]","MIC [2, 4] [µg/mL]","MIC [2, 5] [µg/mL]","MIC ([3]; ATCC6538, No Zinc) [µg/mL]","MIC ([3]; ATCC6538, Zinc (50 μM)) [µg/mL]"
"C=CCNCc1ccc2cccc(NS(=O)(=O)c3ccc(C(F)(F)F)cc3)c2n1 [ZDR097, N-(2-((Allylamino)methyl)quinolin-8-yl)-4-(trifluoromethyl)benzenesulfonamide]",> 256,0.0625,> 256,256,> 256,> 256
"C#CCNCc1ccc2cccc(NS(=O)(=O)c3ccc(C(F)(F)F)cc3)c2n1 [ZDR098, N-(2-((Prop-2-yn-1-ylamino)methyl)quinolin-8-yl)-4-(trifluoromethyl)benzenesulfonamide]",64,0.125,> 256,> 256,64,> 256
"O=S(=O)(Nc1cccc2ccc(CNCCF)nc12)c1ccc(C(F)(F)F)cc1 [ZDR099, N-(2-(((2-Fluoroethyl)amino)methyl)quinolin-8-yl)-4-(trifluoromethyl)benzenesulfonamide]",64,0.25,> 256,256,64,> 256
"O=S(=O)(Nc1cccc2ccc(CNCC(F)F)nc12)c1ccc(C(F)(F)F)cc1 [ZDR100, N-(2-(((2,2-Difluoroethyl)amino)methyl)quinolin-8-yl)-4-(trifluoromethyl)benzenesulfonamide]",128,0.25,> 256,> 256,32,256
"O=S(=O)(Nc1cccc2ccc(CNCc3cccnc3)nc12)c1ccc(C(F)(F)F)cc1 [ZDR101, N-(2-(((Pyridin-3-ylmethyl)amino)methyl)quinolin-8-yl)-4-(trifluoromethyl)benzenesulfonamide]",> 256,4,128,> 256,64,64
O=S(=O)(Nc1cccc2ccc(CNCc3ccccc3)nc12)c1ccc(C(F)(F)F)cc1 [ZDR103],> 256,0.125,> 256,> 256,128,> 256
"O=S(=O)(Nc1cccc2ccc(CNCc3ccco3)nc12)c1ccc(C(F)(F)F)cc1 [ZDR106, N-(2-(((Furan-2-ylmethyl)amino)methyl)quinolin-8-yl)-4-(trifluoromethyl)benzenesulfonamide]",64,0.25,> 256,> 256,> 256,> 256
"O=S(=O)(Nc1cccc2ccc(CNCc3cccs3)nc12)c1ccc(C(F)(F)F)cc1 [ZDR107, N-(2-(((Thiophen-2-ylmethyl)amino)methyl)quinolin-8-yl)-4-(trifluoromethyl)benzenesulfonamide]",64,0.125,> 256,> 256,> 256,64
"O=S(=O)(Nc1cccc2ccc(CNc3ccccc3)nc12)c1ccc(C(F)(F)F)cc1 [ZDR108, N-(2-((Phenylamino)methyl)quinolin-8-yl)-4-(trifluoromethyl)benzenesulfonamide]",> 256,0.25,> 256,> 256,64,> 256
"O=S(=O)(Nc1cccc2ccc(CNc3ccccn3)nc12)c1ccc(C(F)(F)F)cc1 [ZDR109, N-(2-((Pyridin-2-ylamino)methyl)quinolin-8-yl)-4-(trifluoromethyl)benzenesulfonamide]",> 256,0.5,> 256,> 256,> 256,> 256
"O=S(=O)(Nc1cccc2ccc(CNCc3ccncc3)nc12)c1ccc(C(F)(F)F)cc1 [ZDR110, N-(2-(((Pyridin-4-ylmethyl)amino)methyl)quinolin-8-yl)-4-(trifluoromethyl)benzenesulfonamide]",> 256,4,> 256,> 256,> 256,> 256
"O=S(=O)(Nc1cccc2ccc(CNCCN3CCSCC3)nc12)c1ccc(C(F)(F)F)cc1 [ZDR113, N-(2-(((2-Thiomorpholinoethyl)amino)methyl)quinolin-8-yl)-4-(trifluoromethyl)benzenesulfonamide]",128,1,> 256,> 256,> 256,> 256
